{"source": "the NIST ThermoML archive (doi:10.1016/j.tca.2014.09.022)", "key": {"[1]": {"assay": "Molar enthalpy of transition or fusion", "conditions": "DSC"}, "[2]": {"conditions": "DTA"}}, "note": "Numbers after ± are expanded uncertainties."}
{"molecule": "OC[C@@H](O)[C@@H](O)CO", "note": "[meso-1,2,3,4-butanetetrol]", "values": [{"measurement": "Molar enthalpy of transition or fusion", "setting": "[1]; Crystal", "result": "9.54 ± 0.502", "unit": "kcal/mol"}, {"measurement": "Triple point temperature", "setting": "[2]; Crystal", "result": "390.15 ± 3", "unit": "K"}]}
{"molecule": "CNC(N)=O", "note": "[methylurea]", "values": [{"measurement": "Molar enthalpy of transition or fusion", "setting": "[1]; Crystal", "result": "3.05 ± 0.177", "unit": "kcal/mol"}, {"measurement": "Triple point temperature", "setting": "[2]; Crystal", "result": "368.15 ± 5", "unit": "K"}]}
{"molecule": "CCCCCCCCCCCCCCCCCCCCCCCCCCCC", "note": "[octacosane]", "values": [{"measurement": "Molar enthalpy of transition or fusion", "setting": "[1]; Crystal 1", "result": "15.3 ± 0.86", "unit": "kcal/mol"}, {"measurement": "Molar enthalpy of transition or fusion", "setting": "[1]; Crystal 2", "result": "8.49 ± 0.478", "unit": "kcal/mol"}, {"measurement": "Triple point temperature", "setting": "[2]; Crystal 1", "result": "335.65 ± 2.5", "unit": "K"}, {"measurement": "Triple point temperature", "setting": "[2]; Crystal 2", "result": "330.65 ± 2.5", "unit": "K"}]}
{"molecule": "Oc1ccc(O)cc1", "note": "[1,4-benzenediol]", "values": [{"measurement": "Molar enthalpy of transition or fusion", "setting": "[1]; Crystal", "result": "5.68 ± 0.311", "unit": "kcal/mol"}, {"measurement": "Triple point temperature", "setting": "[2]; Crystal", "result": "445.65 ± 2.5", "unit": "K"}]}
{"molecule": "OCCCCCCCCCCO", "note": "[1,10-decanediol]", "values": [{"measurement": "Molar enthalpy of transition or fusion", "setting": "[1]; Crystal", "result": "10.7 ± 0.574", "unit": "kcal/mol"}, {"measurement": "Triple point temperature", "setting": "[2]; Crystal", "result": "344.65 ± 2.5", "unit": "K"}]}
{"molecule": "O=C(O)CCCC(=O)O", "note": "[1,5-pentanedioic acid]", "values": [{"measurement": "Molar enthalpy of transition or fusion", "setting": "[1]; Crystal", "result": "5.02 ± 0.287", "unit": "kcal/mol"}, {"measurement": "Triple point temperature", "setting": "[2]; Crystal", "result": "369.65 ± 2.5", "unit": "K"}]}
{"molecule": "O=C(O)CCCCCCCCC(=O)O", "note": "[1,10-decanedioic acid]", "values": [{"measurement": "Molar enthalpy of transition or fusion", "setting": "[1]; Crystal", "result": "10.7 ± 0.574", "unit": "kcal/mol"}, {"measurement": "Triple point temperature", "setting": "[2]; Crystal", "result": "405.65 ± 2.5", "unit": "K"}]}
